Bounds are passed on as bounds.

Usually EC50 stands for the concentration at which the effect is half-maximal. Low readings indicate greater potency, high ones weaker potency.

The target of one assay is human CB2 receptors (Homo sapiens (Human), UniProt P34972). As to the kind of experiment: functional cAMP assay, CHO cells expressing human CB2 receptors. The format is cell-based. As to the method: (§1) CHO cells expressing human CB1 or CB2 receptors are seeded 17-24 hours prior to the experiment 50.000 cells per well in a black 96 well plate with flat clear bottom (Corning Costar #3904) in DMEM (Invitrogen No. 31331), 1×HT supplement, with 10% fetal calf serum and incubated at 5% CO2 and 37° C. in a humidified incubator. The growth medium was exchanged with Krebs Ringer Bicarbonate buffer with 1 mM IBMX and incubated at 30° C. for 30 min. Compounds were added to a final assay volume of 100 μl and incubated for 30 min at 30° C. Using the cAMP-Nano-TRF detection kit the assay (Roche Diagnostics) was stopped by the addition of 50 μl lysis reagent (Tris, NaCl, 1.5% Triton X100, 2.5% NP40, 10% NaN3) and 50 μl detection solutions (20 μM mAb Alexa700-cAMP 1:1, and 48 μM Ruthenium-2-AHA-cAMP) and shaken for 2 h at room temperature. The time-resolved energy transfer is measured by a TRF reader (Evotec Technologies GmbH), equipped with a ND:YAG laser as excitation source. The plate is measured twice with the excitation at 355 nm and at the emission with a delay of 100 ns and a gate of 100 ns, total exposure time 10 s at 730 (bandwidth 30 nm) or 645 nm (bandwidth 75 nm), respectively. The FRET signal is calculated as follows: FRET=T730-Alexa730-P(T645-B645) with P=Ru730-B730/Ru645-B645, where T730 is the test well measured at 730 nM, T645 is the test well measured at 645 nm, B730 and B645 are the buffer controls at 730 nm and 645 nm, respectively. cAMP content is determined from the function of a standard curve spanning from 10 μM to 0.13 nM cAMP.
(§2) EC50 values were determined using Activity Base analysis (ID Business Solution, Limited). The EC50 values for a wide range of cannabinoid agonists generated from this assay were in agreement with the values published in the scientific literature.

Another assay addresses human CB1 receptors (Homo sapiens (Human), UniProt P21554). As to the kind of experiment: functional cAMP assay, CHO cells expressing human CB1 receptors. The format is cell-based. The method, then: as §1, §2
Background: cAMP levels reflect the balance of adenylyl cyclase and phosphodiesterase activity.

human CB1 receptors, sequence (P21554 whole entry): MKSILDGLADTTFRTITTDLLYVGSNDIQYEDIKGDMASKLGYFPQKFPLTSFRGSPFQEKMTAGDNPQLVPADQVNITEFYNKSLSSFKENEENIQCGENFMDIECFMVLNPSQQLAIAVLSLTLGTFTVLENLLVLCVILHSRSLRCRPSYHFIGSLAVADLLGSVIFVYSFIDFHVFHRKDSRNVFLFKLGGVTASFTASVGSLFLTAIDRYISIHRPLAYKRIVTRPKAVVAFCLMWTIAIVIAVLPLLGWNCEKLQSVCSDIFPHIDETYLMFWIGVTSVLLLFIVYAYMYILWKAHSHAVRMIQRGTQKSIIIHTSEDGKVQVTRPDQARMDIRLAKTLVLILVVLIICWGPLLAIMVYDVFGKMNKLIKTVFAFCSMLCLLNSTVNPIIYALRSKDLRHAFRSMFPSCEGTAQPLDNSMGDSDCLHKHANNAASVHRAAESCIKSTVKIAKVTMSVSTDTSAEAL
human CB2 receptors, sequence (P34972 whole entry): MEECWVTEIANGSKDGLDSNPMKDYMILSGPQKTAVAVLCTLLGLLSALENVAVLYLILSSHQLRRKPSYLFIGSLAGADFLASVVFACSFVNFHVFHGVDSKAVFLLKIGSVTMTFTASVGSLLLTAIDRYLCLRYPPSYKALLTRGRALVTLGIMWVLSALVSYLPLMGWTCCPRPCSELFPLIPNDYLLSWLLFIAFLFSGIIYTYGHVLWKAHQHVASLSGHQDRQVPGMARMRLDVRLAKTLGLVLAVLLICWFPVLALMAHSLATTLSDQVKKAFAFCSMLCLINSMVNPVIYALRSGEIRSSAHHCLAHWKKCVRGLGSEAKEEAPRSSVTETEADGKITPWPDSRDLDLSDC

As to `NC(=O)[C@@H]1C[S@+]([O-])CN1C(=O)c1ccc(C2CC2)c(OCC2CC2)n1` (single isomer, unassigned) [Example 116, (1S,4R)-3-(5-Cyclopropyl-6-cyclopropylmethoxy-pyridine-2-carbonyl)-1-oxo-1λ^4-thiazolidine-4-carboxylic acid amide or (1R,4S)-3-(5-cyclopropyl-6-cyclopropylmethoxy-pyridine-2-carbonyl)-1-oxo-1λ^4-thiazolidine-4-carboxylic acid amide], the figures for the EC50 on human CB2 receptors and on human CB1 receptors were 672 nM and more than 10000 nM, respectively.

Turning to `CN(C(=O)c1ccc(N2CC(F)(F)C2)c(OCC2CC2)n1)C(C)(C)C` [Example 1, 6-Cyclopropylmethoxy-5-(3,3-difluoro-azetidin-1-yl)-pyridine-2-carboxylic acid tert-butyl-methyl-amide], the EC50 at human CB2 receptors is 4.6 nM; on human CB1 receptors, more than 10000 nM.

Take `CN(C)C(=O)c1ccc(N2CC(F)(F)C2)c(OCC2CC2)n1` [Example 2, 6-Cyclopropylmethoxy-5-(3,3-difluoro-azetidin-1-yl)-pyridine-2-carboxylic acid dimethylamide]: the figures for the EC50 at human CB2 receptors and at human CB1 receptors were 297 nM and more than 10000 nM, respectively.

Regarding `CN(C(=O)c1ccc(C2CC2)c(OCC2CC2)n1)C(C)(C)C` [Example 3, 5-Cyclopropyl-6-cyclopropylmethoxy-pyridine-2-carboxylic acid tert-butyl-methyl-amide], the EC50 on human CB2 receptors is 7.2 nM; at human CB1 receptors, more than 10000 nM.

With `CN(C(=O)c1ccc(C2CC2)c(OCC2CCCO2)n1)C(C)(C)C` (stereo not drawn) [Example 4, 5-Cyclopropyl-6-(tetrahydro-furan-2-ylmethoxy)-pyridine-2-carboxylic acid tert-butyl-methyl-amide], the figures for the EC50 on human CB2 receptors and on human CB1 receptors were 8.5 nM and more than 10000 nM, respectively.

Consider `CN(C(=O)c1ccc(C2CC2)c(Cc2ccc(F)cc2)n1)C(C)(C)C` [Example 5, 5-Cyclopropyl-6-(4-fluoro-benzyl)-pyridine-2-carboxylic acid tert-butyl-methyl-amide], for which the results for the half-maximal effective concentration (EC50) on human CB2 receptors and on human CB1 receptors were 0.8 nM and 268 nM, respectively.

As for `CC(C)CS(=O)(=O)c1nc(C(=O)N(C)C(C)(C)C)ccc1C1CC1` [Example 6, 5-Cyclopropyl-6-(2-methyl-propane-1-sulfonyl)-pyridine-2-carboxylic acid tert-butyl-methyl-amide], the figures for the half-maximal effective concentration (EC50) at human CB2 receptors and on human CB1 receptors were 106 nM and more than 10000 nM, respectively.

Regarding `CCN(C(=O)c1ccc(N2CC(F)(F)C2)c(OCC2CC2)n1)C(C)(C)C` [Example 7, 6-Cyclopropylmethoxy-5-(3,3-difluoro-azetidin-1-yl)-pyridine-2-carboxylic acid tert-butyl-ethyl-amide], the results for the EC50 on human CB2 receptors and at human CB1 receptors were 0.6 nM and 292 nM, respectively.

As for `COCC(C)(C)N(C)C(=O)c1ccc(N2CC(F)(F)C2)c(OCC2CC2)n1` [Example 9, 6-Cyclopropylmethoxy-5-(3,3-difluoro-azetidin-1-yl)-pyridine-2-carboxylic acid (2-methoxy-1,1-dimethyl-ethyl)-methyl-amide], the results for the concentration giving a half-maximal response (EC50) on human CB2 receptors and at human CB1 receptors were 3.8 nM and more than 10000 nM, respectively.

As for `O=C(c1ccc(N2CC(F)(F)C2)c(OCC2CC2)n1)N1CCC12COC2` [Example 10, [6-Cyclopropylmethoxy-5-(3,3-difluoro-azetidin-1-yl)-pyridin-2-yl]-(6-oxa-1-aza-spiro[3.3]hept-1-yl)-methanone], the EC50 on human CB2 receptors was 662 nM; at human CB1 receptors it was more than 10000 nM.

Take `O=C(c1ccc(N2CC(F)(F)C2)c(OCC2CC2)n1)N1CC2(COC2)C1` [Example 11, [6-Cyclopropylmethoxy-5-(3,3-difluoro-azetidin-1-yl)-pyridin-2-yl]-(2-oxa-6-aza-spiro[3.3]hept-6-yl)-methanone]: the EC50 is 364 nM on human CB2 receptors and more than 10000 nM at human CB1 receptors.

Turning to `CN(C(=O)c1ccc(N2CC(F)(F)C2)c(OCC2CC2)n1)C(C)(C)COC(=O)c1ccc(N2CC(F)(F)C2)c(OCC2CC2)n1` [Example 12, 6-Cyclopropylmethoxy-5-(3,3-difluoro-azetidin-1-yl)-pyridine-2-carboxylic acid 2-{[6-cyclopropylmethoxy-5-(3,3-difluoro-azetidin-1-yl)-pyridine-2-carbonyl]-methyl-amino}-2-methyl-propyl ester], the half-maximal effective concentration (EC50) at human CB2 receptors is 134 nM; on human CB1 receptors it was more than 10000 nM.

For the compound `CC(Oc1nc(C(=O)N(C)C(C)(C)C)ccc1C1CC1)C(F)(F)F` (stereo not drawn) [Example 13, 5-Cyclopropyl-6-(2,2,2-trifluoro-1-methyl-ethoxy)-pyridine-2-carboxylic acid tert-butyl-methyl-amide], the half-maximal effective concentration (EC50) on human CB2 receptors was 119 nM; on human CB1 receptors, more than 10000 nM.

As for `CC1(C)COCN1C(=O)c1ccc(N2CC(F)(F)C2)c(OCC2CC2)n1` [Example 14, [6-Cyclopropylmethoxy-5-(3,3-difluoro-azetidin-1-yl)-pyridin-2-yl]-(4,4-dimethyl-oxazolidin-3-yl)-methanone], the 50% effective concentration (EC50) at human CB2 receptors is 7.3 nM; at human CB1 receptors, more than 10000 nM.

`CN(C(=O)c1ccc(C(F)(F)F)c(OCC2CCCO2)n1)C(C)(C)C` (stereo not drawn) [Example 15, 6-(Tetrahydro-furan-2-ylmethoxy)-5-trifluoromethyl-pyridine-2-carboxylic acid tert-butyl-methyl-amide]: the EC50 at human CB2 receptors was 249 nM; at human CB1 receptors, more than 10000 nM.

`CN(C(=O)c1ccc(N2CC(F)(F)C2)c(OCC2CC2)n1)C1(C(F)(F)F)CC1` [Example 16, 6-Cyclopropylmethoxy-5-(3,3-difluoro-azetidin-1-yl)-pyridine-2-carboxylic acid methyl-(1-trifluoromethyl-cyclopropyl)-amide]: the results for the EC50 on human CB2 receptors and on human CB1 receptors were 8 nM and more than 10000 nM, respectively.

With `CC1(C)COCCN1C(=O)c1ccc(N2CC(F)(F)C2)c(OCC2CC2)n1` [Example 17, [6-Cyclopropylmethoxy-5-(3,3-difluoro-azetidin-1-yl)-pyridin-2-yl]-(3,3-dimethyl-morpholin-4-yl)-methanone], the concentration for a half-maximal effect (EC50) at human CB2 receptors was 5.2 nM; on human CB1 receptors it was more than 10000 nM.

Consider `CC1(C)CCCN1C(=O)c1ccc(N2CC(F)(F)C2)c(OCC2CC2)n1` [Example 18, [6-Cyclopropylmethoxy-5-(3,3-difluoro-azetidin-1-yl)-pyridin-2-yl]-(2,2-dimethyl-pyrrolidin-1-yl)-methanone], for which the EC50 at human CB2 receptors is 0.6 nM; on human CB1 receptors, more than 10000 nM.

With `COCCN(C(=O)c1ccc(N2CC(F)(F)C2)c(OCC2CC2)n1)C(C)(C)CO` [Example 19, 6-Cyclopropylmethoxy-5-(3,3-difluoro-azetidin-1-yl)-pyridine-2-carboxylic acid (2-hydroxy-1,1-dimethyl-ethyl)-(2-methoxy-ethyl)-amide], the EC50 at human CB2 receptors was 856 nM; on human CB1 receptors it was more than 10000 nM.

With `COCCN(C(=O)c1ccc(N2CC(F)(F)C2)c(OCC2CC2)n1)C(C)(C)C` [Example 20, 6-Cyclopropylmethoxy-5-(3,3-difluoro-azetidin-1-yl)-pyridine-2-carboxylic acid tert-butyl-(2-methoxy-ethyl)-amide], the half-maximal effective concentration (EC50) at human CB2 receptors is 5.3 nM; on human CB1 receptors, more than 10000 nM.

With `CCN(C(=O)c1ccc(N2CC(F)(F)C2)c(OCC2CC2)n1)C1(C(F)(F)F)CC1` [Example 21, 6-Cyclopropylmethoxy-5-(3,3-difluoro-azetidin-1-yl)-pyridine-2-carboxylic acid ethyl-(1-trifluoromethyl-cyclopropyl)-amide], the EC50 at human CB2 receptors was 2.8 nM; on human CB1 receptors, more than 10000 nM.

The values are drawn from patent US9303012B2, “Pyridine-2-amides useful as CB2 agonists” (Hoffmann-La Roche Inc., priority 2012, dated 2016).
